Assay results: PubChem BioAssay (NCI)
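1) Cells in 96-well plates. 2) Compound, 48 h, 5 concentrations. 3) Linear interpolation between surrounding doses. 4) Unreached endpoint = highest concentration. Here, GI50 denotes the concentration required for 50% inhibition of growth. TGI denotes the concentration required for complete inhibition of growth.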

Tests used:
Assay in all cases: NCI-60 cell line screen, 48 h
MOLT-4 leukemia = system: MOLT-4 leukemia
KM12 colon = system: KM12 colon
NCI-H226 lung = system: NCI-H226 lung
OVCAR-3 ovarian = system: OVCAR-3 ovarian
NCI/ADR-RES ovarian = system: NCI/ADR-RES ovarian
K-562 leukemia = system: K-562 leukemia
SNB-75 CNS = system: SNB-75 CNS
HOP-62 NSCLC = system: HOP-62 NSCLC
LOX IMVI melanoma = system: LOX IMVI melanoma
PC-3 prostate = system: PC-3 prostate
U251 CNS = system: U251 CNS
CAKI-1 renal = system: CAKI-1 renal
EKVX NSCLC = system: EKVX NSCLC
SF-268 CNS = system: SF-268 CNS
786-0 renal = system: 786-0 renal
UACC-62 melanoma = system: UACC-62 melanoma
RXF 393 renal = system: RXF 393 renal
SNB-19 CNS = system: SNB-19 CNS
OVCAR-4 ovarian = system: OVCAR-4 ovarian
SF-295 CNS = system: SF-295 CNS
SF-539 CNS = system: SF-539 CNS
HCT-116 colon = system: HCT-116 colon
UACC-257 melanoma = system: UACC-257 melanoma
SK-OV-3 ovarian = system: SK-OV-3 ovarian
M14 melanoma = system: M14 melanoma
SN12C renal = system: SN12C renal
RPMI-8226 leukemia = system: RPMI-8226 leukemia
CCRF-CEM leukemia = system: CCRF-CEM leukemia
MDA-MB-468 breast = system: MDA-MB-468 breast
OVCAR-8 ovarian = system: OVCAR-8 ovarian

CN1CCN(CCS(=O)(=O)Nc2cc(-c3ccc4ncnc(Nc5ccc(F)c(Cl)c5)c4c3)cnc2Cl)CC1
TGI (MOLT-4 leukemia): 7.08 µM
GI50 (KM12 colon): 8.23 µM
TGI (KM12 colon): 31.5 µM
GI50 (NCI-H226 lung): 1.96 µM
TGI (NCI-H226 lung): > 100 µM
GI50 (OVCAR-3 ovarian): 0.596 µM
TGI (OVCAR-3 ovarian): 2.99 µM
GI50 (NCI/ADR-RES ovarian): 66.6 µM
TGI (NCI/ADR-RES ovarian): > 100 µM
GI50 (K-562 leukemia): 4.5 µM
TGI (K-562 leukemia): > 100 µM
GI50 (SNB-75 CNS): 0.458 µM
TGI (SNB-75 CNS): 11 µM
GI50 (HOP-62 NSCLC): 2.04 µM
TGI (HOP-62 NSCLC): 38.4 µM
GI50 (LOX IMVI melanoma): 1.17 µM
TGI (LOX IMVI melanoma): 2.92 µM
GI50 (PC-3 prostate): 2.09 µM
TGI (PC-3 prostate): 19.6 µM
GI50 (U251 CNS): 3.12 µM
TGI (U251 CNS): > 100 µM
GI50 (CAKI-1 renal): 1.33 µM
TGI (CAKI-1 renal): 19 µM
GI50 (EKVX NSCLC): 1.23 µM
TGI (EKVX NSCLC): 6.36 µM
GI50 (SF-268 CNS): 1.8 µM
TGI (SF-268 CNS): 37.7 µM
GI50 (786-0 renal): 1.84 µM
TGI (786-0 renal): > 100 µM
GI50 (UACC-62 melanoma): 1.18 µM
TGI (UACC-62 melanoma): 9.65 µM
GI50 (RXF 393 renal): 0.784 µM
TGI (RXF 393 renal): 3.85 µM
GI50 (SNB-19 CNS): 1.97 µM
TGI (SNB-19 CNS): > 100 µM
GI50 (OVCAR-4 ovarian): 5.45 µM
TGI (OVCAR-4 ovarian): > 100 µM
GI50 (SF-295 CNS): 3.01 µM
TGI (SF-295 CNS): 65.1 µM
GI50 (SF-539 CNS): 1.82 µM
TGI (SF-539 CNS): 6.8 µM
GI50 (HCT-116 colon): 4.18 µM
TGI (HCT-116 colon): 18.5 µM
GI50 (UACC-257 melanoma): 3.02 µM
TGI (UACC-257 melanoma): 17.2 µM
GI50 (SK-OV-3 ovarian): 1.59 µM
TGI (SK-OV-3 ovarian): 7.28 µM
GI50 (M14 melanoma): 3.34 µM
TGI (M14 melanoma): 20.5 µM
GI50 (SN12C renal): 3.25 µM
TGI (SN12C renal): > 100 µM
GI50 (RPMI-8226 leukemia): 13.5 µM
TGI (RPMI-8226 leukemia): 38 µM
GI50 (CCRF-CEM leukemia): 0.579 µM
TGI (CCRF-CEM leukemia): 80.4 µM
GI50 (MDA-MB-468 breast): 0.205 µM
TGI (MDA-MB-468 breast): 0.902 µM
GI50 (OVCAR-8 ovarian): 3.73 µM
TGI (OVCAR-8 ovarian): 23.1 µM
